Measured values as given in ChEMBL document CHEMBL3098069, “Azide-alkyne cycloaddition affording enzymatically tunable bisubstrate based inhibitors of histone acetyltransferase PCAF” (Bioorg Med Chem Lett, 2014).
Calls of active or inactive are those of the source. The calls are words filed in the database; no cut-off is given here. Square brackets hold non-standard residues; d marks the D form. Peptide text beside a SMILES is read from it. Lys(N3) = [N-]=[N+]=NCCCC[C@H](N)C(=O)O; pS = N[C@@H](COP(=O)(O)O)C(=O)O

Experiments:
[1] = target: T1, Histone acetyltransferase KAT2B (Homo sapiens, UniProt Q92831); test: Inhibition of PCAF (unknown origin) using histone H3 derived peptide as substrate at 10^-6 to 10^-3 M after 20 mins by fluorescence assay
Target sequence in this assay (Q92831 whole entry, looked up): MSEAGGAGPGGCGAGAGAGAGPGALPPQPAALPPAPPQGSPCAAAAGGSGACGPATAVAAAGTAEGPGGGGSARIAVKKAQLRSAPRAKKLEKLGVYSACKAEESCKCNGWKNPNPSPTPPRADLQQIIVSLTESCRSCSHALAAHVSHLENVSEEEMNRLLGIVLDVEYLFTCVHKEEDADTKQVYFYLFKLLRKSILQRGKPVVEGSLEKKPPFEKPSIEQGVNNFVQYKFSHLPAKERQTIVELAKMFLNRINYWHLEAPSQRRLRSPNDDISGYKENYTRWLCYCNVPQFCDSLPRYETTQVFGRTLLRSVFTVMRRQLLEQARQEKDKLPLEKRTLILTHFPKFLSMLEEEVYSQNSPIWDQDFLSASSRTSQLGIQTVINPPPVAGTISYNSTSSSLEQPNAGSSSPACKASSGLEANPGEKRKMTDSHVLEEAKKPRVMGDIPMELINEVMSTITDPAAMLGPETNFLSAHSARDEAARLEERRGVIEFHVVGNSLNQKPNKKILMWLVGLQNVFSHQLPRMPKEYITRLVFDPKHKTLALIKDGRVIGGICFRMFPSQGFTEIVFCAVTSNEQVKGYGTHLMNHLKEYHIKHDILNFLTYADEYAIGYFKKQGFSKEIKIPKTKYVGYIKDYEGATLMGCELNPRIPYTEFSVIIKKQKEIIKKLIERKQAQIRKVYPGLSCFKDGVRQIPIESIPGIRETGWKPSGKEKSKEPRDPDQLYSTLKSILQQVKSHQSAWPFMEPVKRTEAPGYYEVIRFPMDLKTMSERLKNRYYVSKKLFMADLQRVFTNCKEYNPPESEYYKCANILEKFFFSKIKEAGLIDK

[2] = Drug degradation in NEB buffer at 1 mg after 10 to 120 mins by RP-HPLC analysis; type: physicochemical
[3] = Drug degradation in NEB buffer assessed as Protein phosphatase 1 (unknown origin)-mediated H3-Ser-CoA formation at 1 mg after 30 mins by RP-HPLC analysis; type: ADME, Homo sapiens; details: 0.5 h
[4] = target: T1, Histone acetyltransferase KAT2B; test: Competitive inhibition of PCAF (unknown origin) using histone H3 derived peptide as substrate after 20 mins by fluorescence assay
Target sequence in this assay (Q92831 whole entry): as the sequence (Q92831 whole entry, looked up) above

[5] = target: T1, Histone acetyltransferase KAT2B; test: Inhibition of PCAF (unknown origin) using histone H3 derived peptide as substrate after 20 mins by fluorescence assay
Target sequence in this assay (Q92831 whole entry): as the sequence (Q92831 whole entry, looked up) above

[6] = target: Serine/threonine-protein kinase pim-1 (Homo sapiens, UniProt P11309); test: Drug degradation in NEB buffer assessed as PIM1 kinase (unknown origin)-mediated H3-pSer-CoA formation at 1 mg after 60 mins by RP-HPLC analysis; type: ADME; details: 1 h
Sequence of Serine/threonine-protein kinase pim-1 (P11309 whole entry): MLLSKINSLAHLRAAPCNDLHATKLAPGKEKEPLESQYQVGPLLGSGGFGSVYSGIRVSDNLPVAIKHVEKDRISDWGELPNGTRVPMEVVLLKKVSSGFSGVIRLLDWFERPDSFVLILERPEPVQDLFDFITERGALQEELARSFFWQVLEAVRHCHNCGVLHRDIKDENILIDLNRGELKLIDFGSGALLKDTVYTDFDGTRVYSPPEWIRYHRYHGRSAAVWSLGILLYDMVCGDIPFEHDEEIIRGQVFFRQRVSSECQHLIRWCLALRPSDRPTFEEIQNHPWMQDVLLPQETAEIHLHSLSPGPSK

Row | SMILES | inhibition [1] | Stability [2] | Drug degradation [3] | IC50 [4] [µM] | IC50 [5] [µM] | Drug degradation [6]
1 | C#CCSCCNC(=O)CCNC(=O)[C@@H](O)C(C)(C)COP(=O)(O)OP(=O)(O)OC[C@H]1O[C@@H](n2cnc3c(N)ncnc32)[C@H](O)[C@@H]1OP(=O)(O)O | inactive | – | – | – | – | –
2 | CC(=O)N[C@@H](C)C(=O)N[C@@H](CCCNC(=N)N)C(=O)N[C@@H](CCCCN)C(=O)N[C@@H](COP(=O)(O)O)C(=O)N[C@H](C(=O)NCC(=O)NCC(=O)N[C@@H](CCCCn1cc(CSCCNC(=O)CCNC(=O)[C@@H](O)C(C)(C)COP(=O)(O)OP(=O)(O)OC[C@H]2O[C@@H](n3cnc4c(N)ncnc43)[C@H](O)[C@@H]2OP(=O)(O)O)nn1)C(=O)N[C@@H](C)C(=O)N1CCC[C@H]1C(=O)N[C@@H](CCCNC(=N)N)C(=O)N[C@@H](CCCCN)C(N)=O)[C@@H](C)O | – | Unstable | Active | 33 | 1.7 | –
3 | CC(=O)N[C@@H](C)C(=O)N[C@@H](CCCNC(=N)N)C(=O)N[C@@H](CCCCN)C(=O)N[C@@H](COP(=O)(O)O)C(=O)N[C@H](C(=O)NCC(=O)NCC(=O)N[C@@H](CCCCN=[N+]=[N-])C(=O)N[C@@H](C)C(=O)N1CCC[C@H]1C(=O)N[C@@H](CCCNC(=N)N)C(=O)N[C@@H](CCCCN)C(N)=O)[C@@H](C)O (Ac-ARK[pS]TGG[Lys(N3)]APRK-NH2) | inactive | – | – | – | – | –
4 | CC(=O)N[C@@H](C)C(=O)N[C@@H](CCCNC(=N)N)C(=O)N[C@@H](CCCCN)C(=O)N[C@@H](CO)C(=O)N[C@H](C(=O)NCC(=O)NCC(=O)N[C@@H](CCCCN=[N+]=[N-])C(=O)N[C@@H](C)C(=O)N1CCC[C@H]1C(=O)N[C@@H](CCCNC(=N)N)C(=O)N[C@@H](CCCCN)C(N)=O)[C@@H](C)O (Ac-ARKSTGG[Lys(N3)]APRK-NH2) | inactive | – | – | – | – | –
5 | CC(=O)N[C@@H](C)C(=O)N[C@@H](CCCNC(=N)N)C(=O)N[C@@H](CCCCN)C(=O)N[C@@H](CO)C(=O)N[C@H](C(=O)NCC(=O)NCC(=O)N[C@@H](CCCCn1cc(CSCCNC(=O)CCNC(=O)[C@@H](O)C(C)(C)COP(=O)(O)OP(=O)(O)OC[C@H]2O[C@@H](n3cnc4c(N)ncnc43)[C@H](O)[C@@H]2OP(=O)(O)O)nn1)C(=O)N[C@@H](C)C(=O)N1CCC[C@H]1C(=O)N[C@@H](CCCNC(=N)N)C(=O)N[C@@H](CCCCN)C(N)=O)[C@@H](C)O | – | Unstable | – | 117 | 2.8 | Active
